# According to PubChem BioAssay AID1845207 (Molecular Pharmacology Branch, DTP, NCI, 2023):
# System: NCI-H1876 tumor spheroid viability
# Experiment: Anticancer human tumor NCI-H1876 cell line growth inhibition;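 further: spheroids exposed to compounds for seven days before the viability read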;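 on viability, T/C: percent of DMSO vehicle control viability so 100% = vehicle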
# Details: spheroids with HUVEC and MSC; for IC50: curve of first compound; for viability, T/C: stronger effect = lower value
# Method in brief: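 Complex tumor spheroids combined malignant cells with endothelial cells and mesenchymal stem cells. DNA-damaging drugs and DNA repair inhibitors were tested alone and in combination, at half-log dilutions down from clinical Cmax (top 10 microM if Cmax unknown), 0.25% DMSO final.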
# [1] = second compound 0.003 µM, first compound 0.0949 µM
# [2] = second compound 0.003 µM, first compound 0.3 µM
# [3] = second compound 0.003 µM, first compound 0.949 µM
# [4] = second compound 0.003 µM, first compound 3 µM
compound,measurement,setting,value
Cc1sc2c(c1C)C(c1ccc(Cl)cc1)=NC(CC(=O)Nc1ccc(O)cc1)c1nnc(C)n1-2 (stereo not given) + COc1cc2c(cc1O)CCNC21CSC2c3c(OC(C)=O)c(C)c4c(c3C(COC1=O)N1C(O)C3Cc5cc(C)c(OC)c(O)c5C(C21)N3C)OCO4,IC50,second compound 30 pM,265 nM
same,IC50,second compound 94.9 pM,148 nM
same,IC50,second compound 0.0003 µM,< 9.49 nM
same,IC50,second compound 0.000949 µM,< 9.49 nM
same,IC50,second compound 0.003 µM,< 9.49 nM
same,"viability, T/C","second compound 30 pM, first compound 0.00949 µM",104%
same,"viability, T/C","second compound 30 pM, first compound 0.03 µM",108%
same,"viability, T/C","second compound 30 pM, first compound 0.0949 µM",104%
same,"viability, T/C","second compound 30 pM, first compound 0.3 µM",43.3%
same,"viability, T/C","second compound 30 pM, first compound 0.949 µM",17.1%
same,"viability, T/C","second compound 30 pM, first compound 3 µM",8.32%
same,"viability, T/C","second compound 94.9 pM, first compound 0.00949 µM",100%
same,"viability, T/C","second compound 94.9 pM, first compound 0.03 µM",95.4%
same,"viability, T/C","second compound 94.9 pM, first compound 0.0949 µM",60.6%
same,"viability, T/C","second compound 94.9 pM, first compound 0.3 µM",30.8%
same,"viability, T/C","second compound 94.9 pM, first compound 0.949 µM",9.48%
same,"viability, T/C","second compound 94.9 pM, first compound 3 µM",5.87%
same,"viability, T/C","second compound 0.0003 µM, first compound 0.00949 µM",29.3%
same,"viability, T/C","second compound 0.0003 µM, first compound 0.03 µM",23.2%
same,"viability, T/C","second compound 0.0003 µM, first compound 0.0949 µM",22.7%
same,"viability, T/C","second compound 0.0003 µM, first compound 0.3 µM",4.78%
same,"viability, T/C","second compound 0.0003 µM, first compound 0.949 µM",2.87%
same,"viability, T/C","second compound 0.0003 µM, first compound 3 µM",3.05%
same,"viability, T/C","second compound 0.000949 µM, first compound 0.00949 µM",3.88%
same,"viability, T/C","second compound 0.000949 µM, first compound 0.03 µM",2.86%
same,"viability, T/C","second compound 0.000949 µM, first compound 0.0949 µM",1.98%
same,"viability, T/C","second compound 0.000949 µM, first compound 0.3 µM",2.62%
same,"viability, T/C","second compound 0.000949 µM, first compound 0.949 µM",1.67%
same,"viability, T/C","second compound 0.000949 µM, first compound 3 µM",2.3%
same,"viability, T/C","second compound 0.003 µM, first compound 0.00949 µM",0.46%
same,"viability, T/C","second compound 0.003 µM, first compound 0.03 µM",0.43%
same,"viability, T/C",[1],0.51%
same,"viability, T/C",[2],0.57%
same,"viability, T/C",[3],0.25%
same,"viability, T/C",[4],0.65%
O=C(c1cc(Cc2n[nH]c(=O)c3ccccc23)ccc1F)N1CCN(C(=O)C2CC2)CC1 + CC[C@@]1(O)C(=O)OCc2c1cc1n(c2=O)Cc2cc3c(CN(C)C)c(O)ccc3nc2-1,IC50,second compound 0.003 µM,325 nM
same,IC50,second compound 0.00949 µM,< 94.9 nM
same,IC50,second compound 0.03 µM,< 94.9 nM
same,IC50,second compound 0.0949 µM,< 94.9 nM
same,IC50,second compound 0.3 µM,< 94.9 nM
same,"viability, T/C",[1],60.1%
same,"viability, T/C",[2],49.8%
same,"viability, T/C",[3],41.9%
same,"viability, T/C",[4],30.9%
same,"viability, T/C","second compound 0.003 µM, first compound 9.49 µM",22%
same,"viability, T/C","second compound 0.003 µM, first compound 30 µM",16%
same,"viability, T/C","second compound 0.00949 µM, first compound 0.0949 µM",21.2%
same,"viability, T/C","second compound 0.00949 µM, first compound 0.3 µM",21%
same,"viability, T/C","second compound 0.00949 µM, first compound 0.949 µM",19.2%
same,"viability, T/C","second compound 0.00949 µM, first compound 3 µM",20.6%
same,"viability, T/C","second compound 0.00949 µM, first compound 9.49 µM",35.5%
same,"viability, T/C","second compound 0.00949 µM, first compound 30 µM",15.7%
same,"viability, T/C","second compound 0.03 µM, first compound 0.0949 µM",12.3%
same,"viability, T/C","second compound 0.03 µM, first compound 0.3 µM",12.6%
same,"viability, T/C","second compound 0.03 µM, first compound 0.949 µM",13.7%
same,"viability, T/C","second compound 0.03 µM, first compound 3 µM",23.3%
same,"viability, T/C","second compound 0.03 µM, first compound 9.49 µM",18.2%
same,"viability, T/C","second compound 0.03 µM, first compound 30 µM",14.3%
same,"viability, T/C","second compound 0.0949 µM, first compound 0.0949 µM",35.7%
same,"viability, T/C","second compound 0.0949 µM, first compound 0.3 µM",7.72%
same,"viability, T/C","second compound 0.0949 µM, first compound 0.949 µM",8.21%
same,"viability, T/C","second compound 0.0949 µM, first compound 3 µM",10%
same,"viability, T/C","second compound 0.0949 µM, first compound 9.49 µM",12.8%
same,"viability, T/C","second compound 0.0949 µM, first compound 30 µM",14.4%
same,"viability, T/C","second compound 0.3 µM, first compound 0.0949 µM",4.06%
same,"viability, T/C","second compound 0.3 µM, first compound 0.3 µM",3.8%
same,"viability, T/C","second compound 0.3 µM, first compound 0.949 µM",4.04%
same,"viability, T/C","second compound 0.3 µM, first compound 3 µM",5.04%
same,"viability, T/C","second compound 0.3 µM, first compound 9.49 µM",13.5%
same,"viability, T/C","second compound 0.3 µM, first compound 30 µM",9.66%
